Here are results for one compound from patent US20080167330A1, “Carbamoylsulphoximides as protein kinase inhibitors” (priority 2006, published 2008).

Format in all cases: biochemical
The subject of assay [1] is Aurora C, CDK1/CycB, CDK2/CycE, KDR (VEGFR2). Briefly: various kinase assays taken together (selectivity profile). The conditions noted are these: comparison across the kinase assays, in words. The protocol: The compounds of Examples 1 to 22 were tested for their inhibitory effect in the various kinase assays and in a proliferation assay with MCF7 human breast tumour cells (Tab. 1). […] Exemplary compounds 1-8, 10-12, 15, 17-20 inhibit the proliferation of human MCF7 breast tumour cells with half-maximum concentrations in the submicromolar range.

The target in assay [2] is T1, KDR (VEGFR2) (Homo sapiens, UniProt P35968).
T1 construct: GST; purchased ProQinase GmbH, Freiburg; host or cells: baculovirus-infected insect cells (Sf9)
T1 sequence (P35968 807-1356 limits assumed): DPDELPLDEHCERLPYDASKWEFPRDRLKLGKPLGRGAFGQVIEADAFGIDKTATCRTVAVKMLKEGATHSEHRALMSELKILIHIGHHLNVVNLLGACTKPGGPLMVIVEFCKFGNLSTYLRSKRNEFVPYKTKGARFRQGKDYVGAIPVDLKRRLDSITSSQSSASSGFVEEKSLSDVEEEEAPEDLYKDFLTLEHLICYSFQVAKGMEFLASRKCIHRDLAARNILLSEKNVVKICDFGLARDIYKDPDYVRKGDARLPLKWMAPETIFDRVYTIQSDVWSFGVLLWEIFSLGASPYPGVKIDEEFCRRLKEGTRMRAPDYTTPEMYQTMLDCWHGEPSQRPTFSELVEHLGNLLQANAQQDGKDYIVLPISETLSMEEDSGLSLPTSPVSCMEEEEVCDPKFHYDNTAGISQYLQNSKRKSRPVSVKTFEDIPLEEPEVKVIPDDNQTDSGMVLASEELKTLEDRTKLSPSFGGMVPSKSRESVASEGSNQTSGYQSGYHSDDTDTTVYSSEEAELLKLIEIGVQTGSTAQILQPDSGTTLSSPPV
Briefly: KDR kinase assay. The conditions noted are these: 8 μM ATP. The protocol:
Recombinant KDR kinase-GST fusion proteins purified from baculovirus-infected insect cells (Sf9), were purchased from ProQinase GmbH, Freiburg. Poly(Glu4Tyr)n, which was used as kinase substrate, was purchased from Sigma.
KDR kinase was incubated in the presence of various concentrations of test substances (0 μM, and within the range 0.01-100 μM) in 40 μL of assay buffer [40 mM Tris/HCl pH 7.5, 10 mM MgCl2, 1 mM MnCl2, 1.0 mM dithiothreitol, 8 μM ATP, 0.025% PEG20000, 24 ng/μL poly(Glu4Tyr)n, 0.2 μCi/measurement point ^33P-gamma ATP, 1.25% dimethyl sulphoxide] at 22° C. for 10 min. The reaction was stopped by adding EDTA solution (250 mM, pH 7.5, 15 μl/measurement point). 15 μl of each reaction mixture were loaded onto P30 filter strips (from Wallac), and non-incorporated ^33P-ATP was removed by washing the filter strips three times in 0.5% strength phosphoric acid for 10 min each time.
(§1) After the filter strips had been dried at 70° C. for 1 hour, the filter strips were covered with scintillator strips (MeltiLex™ A, from Wallac) and baked at 90° C. for 1 hour. The amount of incorporated ^33P (substrate phosphorylation) was determined by scintillation measurement in a gamma radiation counter (Wallac).
(§2) The measured data were normalized to 0% inhibition (enzyme reaction without inhibitor) and 100% inhibition (all assay components except enzyme). The IC50 values were determined by means of a 4-parameter fit using the company's own software.

The target in assay [3] is T2, CDK1/CycB (Homo sapiens, UniProt P06493).
T2 construct: GST; purchased ProQinase GmbH, Freiburg; host or cells: baculovirus-infected insect cells (Sf9)
T2 sequence (P06493 whole entry): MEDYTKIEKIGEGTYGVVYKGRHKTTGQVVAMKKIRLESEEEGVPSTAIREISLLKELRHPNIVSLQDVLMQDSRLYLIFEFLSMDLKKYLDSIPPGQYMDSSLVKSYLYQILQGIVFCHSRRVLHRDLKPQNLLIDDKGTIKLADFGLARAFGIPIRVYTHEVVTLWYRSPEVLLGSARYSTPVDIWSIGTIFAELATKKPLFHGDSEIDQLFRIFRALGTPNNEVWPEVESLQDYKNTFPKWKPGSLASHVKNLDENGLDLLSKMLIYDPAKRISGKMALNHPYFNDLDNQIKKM
T2 sequence (P14635 whole entry partner): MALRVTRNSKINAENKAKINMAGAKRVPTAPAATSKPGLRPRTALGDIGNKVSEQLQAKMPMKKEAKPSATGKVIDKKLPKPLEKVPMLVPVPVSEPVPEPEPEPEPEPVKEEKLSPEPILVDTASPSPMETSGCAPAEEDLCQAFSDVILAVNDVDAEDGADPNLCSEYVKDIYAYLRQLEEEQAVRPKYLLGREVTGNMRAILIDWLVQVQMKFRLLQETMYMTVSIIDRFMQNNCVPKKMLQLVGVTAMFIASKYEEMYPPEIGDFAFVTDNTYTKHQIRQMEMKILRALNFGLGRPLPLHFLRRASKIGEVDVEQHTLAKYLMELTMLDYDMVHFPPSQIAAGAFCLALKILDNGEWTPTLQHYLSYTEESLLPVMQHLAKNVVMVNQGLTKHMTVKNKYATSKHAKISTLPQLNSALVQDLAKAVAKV
Briefly: CDK1/CycB kinase assay. The conditions noted are these: 0.5 μM ATP. As for the experimental part:
Recombinant CDK1- and CycB-GST fusion proteins, purified from baculovirus-infected insect cells (Sf9), were purchased from ProQinase GmbH, Freiburg. The histone IIIS used as kinase substrate can be purchased from Sigma.
CDK1/CycB (5 ng/μL) was incubated in the presence of various concentrations of test substances (0 μM, and within the range 0.01-100 μM) in 40 μL of assay buffer [50 mM Tris/HCl pH 8.0, 10 mM MgCl2, 0.1 mM Na ortho-vanadate, 1.0 mM dithiothreitol, 0.025% PEG 20000, 0.5 μM ATP, 10 μM histone IIIS, 0.2 μCi/measurement point ^33P-gamma ATP, 0.05% NP40, 1.25% dimethyl sulphoxide] at 22° C. for 10 min. The reaction was stopped by adding EDTA solution (250 mM, pH 8.0, 15 μl/measurement point). 15 μl of each reaction mixture were loaded onto P30 filter strips (from Wallac), and non-incorporated ^33P-ATP was removed by washing the filter strips three times in 0.5% strength phosphoric acid for 10 min each time. After the filter strips had been dried at 70° C. for 1 hour, the filter strips were covered with scintillator strips (MeltiLex™ A, from Wallac) and baked at 90° C. for 1 hour. The amount of incorporated ^33P (substrate phosphorylation) was determined by scintillation measurement in a gamma radiation counter (Wallac).
as §2

Assay [4] addresses T3, human Aurora-C (Homo sapiens, UniProt Q9UQB9).
T3 construct: GST; made in house; host or cells: transiently transfected HEK293 cells
T3 sequence (Q9UQB9 1-309): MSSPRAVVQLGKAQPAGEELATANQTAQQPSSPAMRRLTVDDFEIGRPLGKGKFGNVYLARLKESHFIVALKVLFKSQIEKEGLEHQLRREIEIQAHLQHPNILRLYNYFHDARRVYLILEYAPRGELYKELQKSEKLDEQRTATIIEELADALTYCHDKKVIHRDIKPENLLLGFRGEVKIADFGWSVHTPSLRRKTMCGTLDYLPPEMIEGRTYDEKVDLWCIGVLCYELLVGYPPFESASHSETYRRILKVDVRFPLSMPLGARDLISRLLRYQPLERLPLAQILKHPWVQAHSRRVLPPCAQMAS
Briefly: Aurora-C kinase assay (HTRF). The conditions noted are these: 10 μM ATP. As for the experimental part: The Aurora-C inhibitory activity of the substances of this invention was measured in the Aurora-C-HTRF assay (HTRF=Homogeneous Time Resolved Fluorescence) described in the following paragraphs.
Recombinant fusion protein of GST and human Aurora-C was expressed in transiently transfected HEK293 cells and purified by affinity chromatography on glutathione-Sepharose. The substrate used for the kinase reaction was the biotinylated peptide biotin-Ttds-FMRLRRLSTKYRT (C terminus in amide form) which can be purchased for example from JERINI Peptide Technologies (Berlin). Aurora-C was incubated in the presence of various concentrations of test substances in 5 μL of assay buffer [25 mM Hepes/NaOH pH 7.4, 0.5 mM MnCl2, 2.0 mM dithiothreitol, 0.1 mM sodium orthovanadate, 10 μM adenosine triphosphate (ATP), […] substrate, 0.01% (v/v) TritonX-100 (Sigma), 0.05% (w/v) bovine serum albumin (BSA), 1% (v/v) dimethyl sulphoxide] at 22° C. for 60 min. The concentration of Aurora-C was adapted to the particular activity of the enzyme and adjusted so that the assay operated in the linear range. Typical concentrations were in the region of 0.3 nM. The reaction was stopped by adding 5 μl of a solution of HTRF detection reagents (0.2 μM streptavidin-XLent and 1.4 nM anti-phospho-(Ser/Thr)-Akt substrate-Eu-cryptate (Cis biointernational, France, product No. 61P02KAE), a Europium-cryptate-labelled phospho-(Ser/Thr)-Akt substrate antibody [product #9611B, Cell Signaling Technology, Danvers, Mass., USA]) in aqueous EDTA solution (40 mM EDTA, 400 mM KF, 0.05% (w/v) bovine serum albumin (BSA) in 25 mM HEPES/NaOH pH 7.0).
The resulting mixture was incubated at 22° C. for 1 h in order to allow formation of a complex of the biotinylated phosphorylated substrate and the detection reagents. The amount of phosphorylated substrate was then estimated by measuring the resonance energy transfer from the anti-phospho-(Ser/Thr)-Akt substrate-Eu cryptate to the streptavidin-XLent. For this purpose, the fluorescence emissions at 620 nm and 665 nm after excitation at 350 nm were measured in an HTRF measuring instrument, e.g. a Rubystar (BMG Labtechnologies, Offenburg, Germany) or a Viewlux (Perkin-Elmer). The ratio of the emissions at 665 nm and at 622 nm was taken as a measure of the amount of phosphorylated substrate. The data were normalized (enzymic reaction without inhibitor=0% inhibition, all other assay components but no enzyme=100% inhibition) and IC50 values were calculated with a 4-parameter fit using an inhouse software.
A general note: Time-resolved FRET reads energy transfer from a long-lived donor to a nearby acceptor.

The target of assay [5] is T4, CDK2/CycE (Homo sapiens, UniProt P24941).
T4 construct: GST; purchased ProQinase GmbH, Freiburg; host or cells: baculovirus-infected insect cells (Sf9)
Briefly: CDK2/CycE kinase assay. The conditions noted are these: 0.5 μM ATP. As for the experimental part:
Recombinant CDK2- and CycE-GST fusion proteins, purified from baculovirus-infected insect cells (Sf9), were purchased from ProQinase GmbH, Freiburg. The histone IIIS used as kinase substrate was purchased from Sigma. CDK2/CycE (1.25 ng/μL) was incubated in the presence of various concentrations of test substances (0 μM, and within the range 0.01-100 μM) in 40 μL of assay buffer [50 mM Tris/HCl pH 8.0, 10 mM MgCl2, 0.1 mM Na ortho-vanadate, 1.0 mM dithiothreitol, 0.5 μM ATP, 0.2% PEG20000, 10 μM histone IIIS, 0.2 μCi/measurement point ^33P-gamma ATP, 0.05% NP40, 1.25% dimethyl sulphoxide] at 22° C. for 10 min. The reaction was stopped by adding EDTA solution (250 mM, pH 8.0, 15 μl/measurement point).
15 μl of each reaction mixture were loaded onto P30 filter strips (from Wallac), and non-incorporated ^33P-ATP was removed by washing the filter strips three times in 0.5% strength phosphoric acid for 10 min each time.
as §1, §2

For the compound `Cc1c(NC(=O)N=S(C)(C)=O)cccc1Nc1ncc(Br)c(N[C@H](C)[C@@H](C)O)n1` [Example 9, N-({3-[(5-Bromo-4-{[(1R,2R)-2-hydroxy-1-methylpropyl]amino}pyrimidin-2-yl)amino]-2-methylphenyl)carbamoyl)-S,S-dimethylsulphoximide], the selectivity profile entry in assay [1] is recorded as “CDK-selective”. The IC50 in assay [2] is above 1000 nM; in assay [3] it was 180 nM; in assay [4], 20000 nM; in assay [5], 43 nM.

By IC50 is commonly meant the point on the concentration scale where inhibition reaches its midpoint. High values mean weaker potency in that assay, low ones greater potency in that assay.
